Experimental data from patent publication US11951088B2, “Fatty acid analogs and their use in the treatment of conditions related to metabolic syndrome” (Epitracker, Inc., priority 2017, dated 2024).
Read-outs that look alike come from different tables or passages of the source.

Experiments:
human PPAR-δ = biological target: T1, human PPAR-δ (Homo sapiens, UniProt Q03181); experiment: PathHunter NHR Protein Interaction assay, PPAR-δ agonist activity (CHO cells)
T1 sequence (Q03181 1-441): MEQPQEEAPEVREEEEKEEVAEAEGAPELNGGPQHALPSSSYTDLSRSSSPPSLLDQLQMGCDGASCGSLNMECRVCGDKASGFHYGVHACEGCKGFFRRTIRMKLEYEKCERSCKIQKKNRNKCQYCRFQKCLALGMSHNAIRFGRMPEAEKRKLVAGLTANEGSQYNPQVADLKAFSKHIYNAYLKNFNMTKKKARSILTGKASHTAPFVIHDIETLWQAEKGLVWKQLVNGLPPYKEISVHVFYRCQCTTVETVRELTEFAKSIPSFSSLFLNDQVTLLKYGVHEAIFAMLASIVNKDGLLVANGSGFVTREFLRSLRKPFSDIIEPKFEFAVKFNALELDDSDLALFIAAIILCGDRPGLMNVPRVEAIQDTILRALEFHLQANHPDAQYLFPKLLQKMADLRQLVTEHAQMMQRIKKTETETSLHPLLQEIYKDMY
Description: (§1) PPAR-α, PPAR-δ, and PPAR-γ agonist activities were measured using PathHunter Nuclear Hormone Receptor (NHR) Protein Interaction (Pro) assays (DiscoverX, Freemont, California). Briefly, Chinese hamster ovary (CHO) cell lines were used to monitor the activation of PPAR-α, PPAR-δ, and PPAR-γ in a homogenous, non-imaging assay format using Enzyme Fragment Complementation (EFC). The NHR Pro assay was based on detection of protein-protein interactions between activated, full length PPAR-α, PPAR-δ, and PPAR-γ proteins and a nuclear fusion protein containing Steroid Receptor Co-activator Peptide (SRCP) domains with one or more canonical LXXLL interaction motifs. PPAR-α, PPAR-δ, and PPAR-γ were tagged with the ProLink component of the EFC assay system, and the SRCP domain was fused to the enzyme acceptor component (EA) expressed in the nucleus. When bound by ligand, PPAR-α, PPAR-δ, or PPAR-γ migrated to the nucleus and recruited the SRCP domain, whereby complementation occurred, generating a unit of active β-Galactosidase (β-Gal) and production of chemiluminescent signal. […] Percentage activity was calculated using the following formula: % Activity=100%×(mean RLU of test sample−mean RLU of vehicle control)/(mean MAX control ligand−mean RLU of vehicle control).

human PPAR-α = biological target: T2, human PPAR-α (Homo sapiens, UniProt Q07869); experiment: PathHunter NHR Protein Interaction assay, PPAR-α agonist activity (CHO cells); conditions: PPAR-alpha; Table 4
T2 sequence (Q07869 1-468): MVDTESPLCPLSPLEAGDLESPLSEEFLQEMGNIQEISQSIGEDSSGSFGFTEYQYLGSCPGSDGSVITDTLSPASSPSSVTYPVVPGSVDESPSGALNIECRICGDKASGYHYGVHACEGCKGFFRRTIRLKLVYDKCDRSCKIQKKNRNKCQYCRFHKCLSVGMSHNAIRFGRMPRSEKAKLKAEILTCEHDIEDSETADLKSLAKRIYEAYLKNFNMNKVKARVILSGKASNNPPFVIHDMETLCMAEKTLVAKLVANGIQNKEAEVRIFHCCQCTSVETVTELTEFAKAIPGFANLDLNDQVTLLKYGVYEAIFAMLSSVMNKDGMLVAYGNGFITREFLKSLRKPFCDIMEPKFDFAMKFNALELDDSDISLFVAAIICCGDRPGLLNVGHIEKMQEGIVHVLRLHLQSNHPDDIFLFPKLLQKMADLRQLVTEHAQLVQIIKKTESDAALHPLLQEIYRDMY
Description: as §1

[1] = system: New Zealand white rabbits fed a high fat diet; experiment: diet-induced rabbit model for metabolic syndrome-associated dyslipidemia, anemia, liver iron overload and steatohepatitis; format: in vivo; conditions: Day 76
Text: This study further assessed the efficacy of treating diseases associated with metabolic syndrome, including dyslipidemia, inflammation, anemia, liver iron overload and nonalcoholic steatohepatitis, using an oral odd-chain saturated fatty acid. Sixteen New Zealand white rabbits were fed a high fat diet (HFD) (4% peanut oil and 0.5% cholesterol) for 2 weeks. Eight additional rabbits were maintained on a baseline diet. Study rabbits were then divided into the following three groups of eight: baseline diet controls, HFD controls, and C15:0-treated (35 mg/kg body weight) cases. The test article was a synthetic powder stable at room temperature and purchased from Sigma-Aldrich (Products W433400 (≥99% C15:0). The test article was provided daily in the diet for 11 weeks (76 days) while continuing ad libitum access to the HFD (HFD controls and treated groups) or baseline diet (baseline diet controls). Body weight and food intake were measured weekly. Plasma clinical chemistries and red blood cell indices, as well as iron deposition and fibrosis in the liver, were assessed at Day 76. Data from the treated group were compared to the control groups using Wilcoxon rank sum analyses. […].
Table 2 provides comparisons of clinical effects from a diet-induced rabbit model for metabolic syndrome-associated dyslipidemia, inflammation, and hemolytic anemia, including a case group treated daily with oral pentadecanoic acid (C15:0) (35 mg/kg BW) for 11 weeks.
Table 3 provides comparisons of effects on liver histology in a diet-induced rabbit model for metabolic syndrome-associated liver iron overload and nonalcoholic steatohepatitis, including a case group treated daily with oral pentadecanoic acid (C15:0) (35 mg/kg BW) for 11 weeks.

[2] = 24-hour plasma pharmacokinetics after single oral dose in rats; format: in vivo; conditions: for bioavailability: po, 35 mg/kg
[3] = system: C57BL/6J mice fed a high fat diet; experiment: diet-induced obese mice treated daily by gastric gavage for 12 weeks; format: in vivo
Description: Forty C57BL/6J mice were fed a high fat diet (HFD) (D12492, 60% kcals fat) for 8 weeks. Study mice were then divided into the following four groups of ten: vehicle controls, low dose C17:0-treated (5 mg/kg body weight), high-dose C17:0-treated (50 mg/kg body weight), and low-dose C15:0-treated (5 mg/kg body weight).
Table 1 provides comparisons of cardiometabolic effects in diet-induced obese mice treated daily with oral pentadecanoic acid (5 mg/kg BW), heptadecanoic acid (5 and 50 mg/kg BW) for 12 weeks compared to vehicle controls. “Results” values are based on 6 h fasted samples.

human PPAR-γ = biological target: T3, human PPAR-γ (Homo sapiens, UniProt P37231); experiment: PathHunter NHR Protein Interaction assay, PPAR-γ agonist activity (CHO cells)
T3 sequence (P37231 1-505): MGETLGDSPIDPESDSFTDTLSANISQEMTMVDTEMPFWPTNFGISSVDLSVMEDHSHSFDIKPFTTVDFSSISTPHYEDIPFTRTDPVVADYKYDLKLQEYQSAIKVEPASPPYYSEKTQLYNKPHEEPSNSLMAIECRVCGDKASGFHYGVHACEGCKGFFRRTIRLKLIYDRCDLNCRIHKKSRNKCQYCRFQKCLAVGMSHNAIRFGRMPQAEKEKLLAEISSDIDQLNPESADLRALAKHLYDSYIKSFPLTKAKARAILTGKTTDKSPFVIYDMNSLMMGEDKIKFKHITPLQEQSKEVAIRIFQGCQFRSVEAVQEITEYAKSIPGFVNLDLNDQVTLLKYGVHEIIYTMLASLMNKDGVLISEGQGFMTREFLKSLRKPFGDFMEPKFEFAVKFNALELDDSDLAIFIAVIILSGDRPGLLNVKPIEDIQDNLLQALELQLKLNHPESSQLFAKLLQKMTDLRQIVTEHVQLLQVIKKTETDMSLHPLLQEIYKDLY
Description: as §1

[4] = Day 84, 6 h fasted, 5 mg/kg daily oral

In the case of `CCCCCCCCCCCCCCC(=O)O` [C15:0, pentadecanoic acid], the “PPAR-delta agonist activity (in words)” value (human PPAR-δ) is reported as “partial PPAR delta agonist”, the EC50 (human PPAR-α) is reported as 11.5 µM and the “clinical effects compared to the HFD controls (in words)” value ([1]; 35 mg/kg) is reported as “attenuated anemia, liver iron deposition, and liver fibrosis”. The Hematocrit ([1]; 35 mg/kg/day in HFD) was 38 ± 4%, the Hemoglobin ([1]; 35 mg/kg/day in HFD) was 14 ± 1 G/dl and the Mean cell hemoglobin ([1]; 35 mg/kg/day in HFD) was 23 ± 1 pg. For the same molecule, the Mean cell volume ([1]; 35 mg/kg/day in HFD) was 64 ± 2 fL, the “Nucleated red blood cells” value ([1]; 35 mg/kg/day in HFD) was 8 ± 1 10^3/ul and the Platelets ([1]; 35 mg/kg/day in HFD) was 485 ± 87 10^3/ul. The “Red blood cell distribution width” value ([1]; 35 mg/kg/day in HFD) was 15 ± 1%, the Red blood cells ([1]; 35 mg/kg/day in HFD) was 6.0 ± 0.7 10^6/ul and the Cholesterol ([1]; plasma, 35 mg/kg/day in HFD) was 2516 ± 746 mg/dL. The Globulins ([1]; plasma, 35 mg/kg/day in HFD) was 1.3 ± 0.7 G/dl, the Lipemia ([1]; plasma, 35 mg/kg/day in HFD) was 341 ± 243 mg/dL and the Triglycerides ([1]; plasma, 35 mg/kg/day in HFD) was 235 ± 132 mg/dL. For the same molecule, the Cmin ([2]; 35 mg/kg single oral dose) was 700 ng/mL, the Tlast ([2]; 35 mg/kg single oral dose) was 24 h and the AUC(0-t) ([2]; rat, 35 mg/kg single oral dose) was 46400 ng·h/mL. The Tmax ([2]; rat, 35 mg/kg single oral dose) was 1 h, the Cmax ([2]; rat, 35 mg/kg single oral dose, deuterated form) was 4980 ng/mL and the bioavailability ([2]; rat, 35 mg/kg single oral dose, estimate using an AUC of 15 for a 1 mg/kg IV arm, read-out: % F) was 8.83%. For the same molecule, the bioavailability ([2]; rat, oral, rats, read-out: estimated plasma % F (bioavailability)) was 9%, the “metabolic syndrome compared to vehicle controls (in words)” value ([3]; 12 weeks daily oral, C15:0 5 mg/kg, C17:0 5 and 50 mg/kg) was “attenuated metabolic syndrome” and the Cholesterol [3, 4] was 183 ± 25 mg/dL. The Glucose [3, 4] was 245 ± 37 mg/dL, the IL-6 [3, 4] was 19 ± 11 pg/mL and the Insulin [3, 4] was 4.9 ± 3.8 ng/mL. It also gave an LDL-C [3, 4] of 6 ± 4 mg/dL, an MCP-1 [3, 4] of 52 ± 25 pg/mL and a TNF-α [3, 4] of 1.6 ± 1.0 pg/mL. The EC50 (human PPAR-γ) was > 100 µM and the EC50 (human PPAR-γ; read-out: Half Maximal Effective Concentration (EC50), PPAR-γ, Table 5) was > 100 µM.
